Results taken from patent US20230250253A1, “PLASTIC POLYMER BIOCONVERSION PROCESS” (GEORGIA STATE UNIVERSITY RESEARCH FOUNDATION, INC., priority 2020, published 2023).
Read-outs that look alike come from different tables or passages of the source.

Experiments:
[1] = system: Yarrowia lipolytica strain 78-003; test: FA profile on lipid- versus carbohydrate-containing media; format: cell-based; conditions: for Number of different FAs produced: cells grown 120 h
From the text: The hexadecane medium used for FA profile experiments consisted of: 5% v/v hexadecane, 5 g L^−1 yeast nitrogen broth (w/amino acids), 0.5 g L^−1 KH2PO4, and 0.25 g L^−1 Mg2SO4.
Starch medium used for FA profile experiments consisted of: 50 g L^−1 hydrolyzed starch, 2 g L^−1 yeast nitrogen broth (w/amino acids), 0.5 g L^−1 KH2PO4, and 0.25 g L^−1 Mg2SO4. The medium consisted of: 5.4 g L^−1 Tween- 80®, 1.25 g L^−1 (NH4)2SO4, 2.5 g L^−1 KH2PO4, and 0.830 g L^−1 MgSO4. Glucose (5%) medium used for FA profile experiments consisted of: 50 g L^−1 glucose and 3 g L^−1 yeast extract.
Intracellular Lipid Quantification: A modified Bligh and Dyer extraction (Bligh and Dyer 1959) was used to extract lipids from yeast samples. Post-fermentation OP4 culture was withdrawn and aliquoted into pre-weighed 50 ml conical tubes, and tubes were centrifuged, and pellets washed twice with 0.9% NaCl. Pellets were lyophilized overnight using a BT3.3 EL Lyophilizer Tabletop (SP Scientific, USA), weighed, and suspended in a 2:1 v/v chloroform: methanol mixture (5 ml per 50 mg cell dry weight) and sonicated using a Sonic Dismembrator (Fisher Scientific, USA) at 20 kHz, 20% amplitude with pulsing (40 s on, 20 s off for a total working time of 20 min). The chloroform layer was taken and dried under a nitrogen stream. Dried lipids were weighed and derivatized for GC/MS analysis via base-catalyzed esterification with 2.5 ml sodium methoxide (0.1 M) (Milanesio et al. 2013). The reaction was quenched using 200 μL sulfuric acid (>95%), and 2.5 ml hexane was added to each sample, which was then vortexed and centrifuged (5 min at 5000 rpm). 1.5 ml from the top hexane layer was withdrawn for GC/MS analysis.
GC/MS Analysis of Lipid Profile: The FA profile was characterized with an Agilent 7890A gas chromatograph (GC) attached to a 5977A mass spectrometer detector and equipped with an Agilent J&W HP-5 ms UI capillary column ([…]×0.25 mm×[…]). 1 μL samples were injected via an Agilent 7693 Automatic Liquid Sampler in splitless mode with an inlet temperature of 275° C., using helium as the carrier gas at a flow rate of 1 ml min·1. GC oven temperature was held at 60° C. for 1 min, and ramped to 100° C. (rate: 25° C. min·1; hold 1 min). The oven temperature was then increased to 200° C. (rate: 25° C. min^−1; hold 1 min). The oven temperature is then increased to 220° C. (rate: […]; hold 7 min) and then increased to an ending temperature of 300° C. (rate: 25° C. min·1; hold 2 min). A C8-C24 FAME analytical standard was used during sample analyses as an external standard (Sigma Aldrich, USA).

Y. lipolytica = conditions: cited from earlier work
[2] = system: Yarrowia lipolytica ATCC strain 46482; test: Intracellular lipid quantification and GC/MS fatty acid profile, OP5 / PCOP5 medium; format: cell-based
Method: Fermentation Optimization: For fermentation optimization experiments, pH, inoculum density, osmolarity, or carbon-nitrogen ratio were altered. For pH experiments, OP5 medium pH was adjusted to 4.0, 5.0, or 6.0 using 2.0 M H2SO4 or 4.0 M NaOH. A Corning 320 pH meter (Corning, USA) was used to measure pH. For starting inoculum density experiments, OP5 medium was inoculated at an inoculum density of either 1.0, 3.0, or 6.0. Aliquots of 1 ml were retrieved from Y. lipolytica overnight culture and inoculum density was measured via absorbance at 600 nm. Based on absorbance readings, a volume of cells corresponding to the desired inoculum density was retrieved from the overnight culture and centrifuged at 4,000 rpm. Pelleted cells were washed twice with 50 mM PBS solution and used to inoculate OP5 medium. […] After the selected parameters were altered, shake flask fermentations were carried out for 120 hours, after which cells were processed and biomass and lipid product formation were analyzed as described below. […]
Component media experiments were carried out in 500 ml Erlenmeyer flasks containing 50 ml medium, and Y. lipolytica was inoculated at an inoculum density of 1.0. […] The supernatant was decanted and cells washed twice with 50 mM PBS before being lyophilized, weighed as described above, and lipids extracted and quantified as described in the following section. […]

[3] = system: Yarrowia lipolytica ATCC strain 46482; test: Y. lipolytica growth (biomass) in OP5 / PCOP5 medium, fermentation optimization; format: cell-based; conditions: added to OP5 medium at 0.75, 1.5 and 3 g L^−1
Method: Polypropylene Growth Medium Preparation: OP5 medium is prepared as follows. 125-ml flat-bottomed borosilicate flasks were used to pyrolyze either virgin PP pellets or sheared postconsumer PP in 3 g batches at 540° C. for 195 minutes. The pyrolysis oil (at 15 g L^−1) was combined with: 5.4 g L^−1 Tween-80@, 5 g L^−1 yeast nitrogen base, 2.5 g L^−1 KH2PO4, 2.5 g L^−1 yeast extract, and 1.25 g L^−1 MgSO4 7H2O. The mixture was emulsified with a hand-held food-grade homogenizer. To compensate for the lack of oleic acid as an emulsifier, the homogenization time of OP5 medium was increased from 90 seconds (mixing time for OP4 medium) to 3 minutes. The resulting homogenized medium was autoclaved for 30 min at 121° C. and 15 psi.
Cultures and Fermentation Conditions: Yarrowia lipolytica ATCC strain 46482 was the strain used in this work. Overnight cultures were prepared from 1 ml 60% glycerol stocks of Y. lipolytica stored at −80° C. […] 1 ml aliquots of overnight cultures were withdrawn and used to measure yeast growth via absorbance. […]
Growth Measurements: Y. lipolytica growth measurements were taken spectrophotometrically and gravimetric measurements. Y. lipolytica culture aliquots of 1 ml were withdrawn, and growth was measured via optical density at 600 nm using an Eppendorf 6131 Biophotometer (Eppendorf, USA). […]

[4] = Precipitation of polyester-derived medium as a function of pH; format: physicochemical; conditions: PTT1 medium, pH lowered
Method: Method: One g of PTT fiber is added to 4 ml of industrial grade ethanol (100 percent ethanol), 1 ml DMSO+0.41 g NaOH (18 percent w/v). The mixture is refluxed with heating […] for 45 −60 min; the reflux allows for heating of the mixture without the ethanol evaporating. The heating process to depolymerize the fibers is as follows: in the first 5 min, no stirring, then stir for 10 min while the fibers crystallize into a white substance. Continue the heating/reflux for the remainder of the prescribed time, then let the system cool. The product will be a bluish, slurry with white crystals; it may also contain residual carpet materials such as polypropylene, calcium carbonate and adhesive. The bluish liquid is the alcohol fraction, containing the alcohol soluble components derived from PTT (propanol, propanal). The white crystals are the TPA. The pH during reflux is 12 to 13 and the pH of slurry is 12-12.5. The slurry can be centrifuged to separate the alcohol and TPA fractions, or the slurry can be added to an aqueous solution adjusted to pH=11 or 12 using NaOH. This latter step is used to make PTT1 medium. In PTT1 medium, the contents as described are added to 1 liter of pH adjusted water, while mixing; the added compounds will not precipitate. The pH of the resulting solution is adjusted to 9.5, typically using HCl and NaOH. 300 mg/l yeast extract is added as a N source. […]

[5] = Y. lipolytica growing on the medium, this work
[6] = 250 g L^−1 substrate, strain with Poxl-6 and TGL4 inhibited

O=C[C@H](O)[C@@H](O)[C@H](O)[C@H](O)CO [Glucose, glucose]
C 16:0 in C 16 and C 18 FA profile [1, 5]: 16 percentages | C 16:1 in C 16 and C 18 FA profile [1, 5]: 21 percentages | C 18:0 in C 16 and C 18 FA profile [1, 5]: 7 percentages | C 18:1 in C 16 and C 18 FA profile [1, 5]: 56 percentages | Number of different FAs produced [1]: 10

OCC(O)CO [Glycerol, glycerol]
Lipid content (Y. lipolytica; [6]): 31 % CDW | Lipid yield (Y. lipolytica; [6]): 15.5 g/L | C 16:0 in C 16 and C 18 FA profile (Y. lipolytica; source Aggelis 2002): 15 percentages | C 16:1 in C 16 and C 18 FA profile (Y. lipolytica; source Aggelis 2002): 2 percentages | C 18:0 in C 16 and C 18 FA profile (Y. lipolytica; source Aggelis 2002): 11 percentages | C 18:1 in C 16 and C 18 FA profile (Y. lipolytica; source Aggelis 2002): 47 percentages | C 18:2 in C 16 and C 18 FA profile (Y. lipolytica; source Aggelis 2002): 21 percentages | C 16:0 in C 16 and C 18 FA profile (Y. lipolytica; source André et al. 2009): 12 percentages | C 16:1 in C 16 and C 18 FA profile (Y. lipolytica; source André et al. 2009): 11 percentages | C 18:0 in C 16 and C 18 FA profile (Y. lipolytica; source André et al. 2009): 9 percentages | C 18:1 in C 16 and C 18 FA profile (Y. lipolytica; source André et al. 2009): 57 percentages | C 18:2 in C 16 and C 18 FA profile (Y. lipolytica; source André et al. 2009): 11 percentages | C 16:0 in C 16 and C 18 FA profile (Y. lipolytica; source Makri et al. 2010): 13 percentages | C 16:1 in C 16 and C 18 FA profile (Y. lipolytica; source Makri et al. 2010): 17 percentages | C 18:0 in C 16 and C 18 FA profile (Y. lipolytica; source Makri et al. 2010): 6 percentages | C 18:1 in C 16 and C 18 FA profile (Y. lipolytica; source Makri et al. 2010): 55 percentages | C 18:2 in C 16 and C 18 FA profile (Y. lipolytica; source Makri et al. 2010): 7 percentages

CCCCCCCCCCCCCCCC [Hexadecane, hexadecane]
C 16:0 in C 16 and C 18 FA profile [1, 5]: 46 percentages | C 16:1 in C 16 and C 18 FA profile [1, 5]: 15 percentages | C 18:0 in C 16 and C 18 FA profile [1, 5]: 10 percentages | C 18:1 in C 16 and C 18 FA profile [1, 5]: 25 percentages | C 18:2 in C 16 and C 18 FA profile [1, 5]: 4 percentages | Number of different FAs produced [1]: 5

[Cl-].[Na+] [NaCl, sodium chloride]
Effect on fatty acid production or intracellular fatty acid content ([2]; added to OP5 medium at 0.75, 1.5 and 3 g L^−1): no significant impact | Effect on Y. lipolytica cell growth [3]: inhibited

O=C(O)c1ccc(C(=O)O)cc1 [TPA, terephthalic acid]
pH at which it precipitates from the medium [4]: around 8.5

CCCCCCCC/C=C\CCCCCCCC(=O)OCCOCC(OCCO)C1OCC(OCCO)C1OCCO (centres unmarked) [Tween® 80, polysorbate 80]
Fatty acids produced attributable to carbon from the component ([2]; growth in OP5 medium): 0.4 g/L
